Assay results published in patent US20100317624A1 (ASTRAZENECA AB, priority 2009, published 2010).
Where a name gives a salt, the structure may show the parent alone.

What follows are molecules tested against S. aureus GyrB ATPase (Staphylococcus aureus, UniProt P0A0K8) (assay: S. aureus GyrB ATPase inhibition (ammonium molybdate/malachite green phosphate detection)). Settings: compound at 1 μM; inhibition of S. aureus GyrB ATPase; read-out: Percent Inhibition (1 μM).
Chain of S. aureus GyrB ATPase (P0AES4 whole entry): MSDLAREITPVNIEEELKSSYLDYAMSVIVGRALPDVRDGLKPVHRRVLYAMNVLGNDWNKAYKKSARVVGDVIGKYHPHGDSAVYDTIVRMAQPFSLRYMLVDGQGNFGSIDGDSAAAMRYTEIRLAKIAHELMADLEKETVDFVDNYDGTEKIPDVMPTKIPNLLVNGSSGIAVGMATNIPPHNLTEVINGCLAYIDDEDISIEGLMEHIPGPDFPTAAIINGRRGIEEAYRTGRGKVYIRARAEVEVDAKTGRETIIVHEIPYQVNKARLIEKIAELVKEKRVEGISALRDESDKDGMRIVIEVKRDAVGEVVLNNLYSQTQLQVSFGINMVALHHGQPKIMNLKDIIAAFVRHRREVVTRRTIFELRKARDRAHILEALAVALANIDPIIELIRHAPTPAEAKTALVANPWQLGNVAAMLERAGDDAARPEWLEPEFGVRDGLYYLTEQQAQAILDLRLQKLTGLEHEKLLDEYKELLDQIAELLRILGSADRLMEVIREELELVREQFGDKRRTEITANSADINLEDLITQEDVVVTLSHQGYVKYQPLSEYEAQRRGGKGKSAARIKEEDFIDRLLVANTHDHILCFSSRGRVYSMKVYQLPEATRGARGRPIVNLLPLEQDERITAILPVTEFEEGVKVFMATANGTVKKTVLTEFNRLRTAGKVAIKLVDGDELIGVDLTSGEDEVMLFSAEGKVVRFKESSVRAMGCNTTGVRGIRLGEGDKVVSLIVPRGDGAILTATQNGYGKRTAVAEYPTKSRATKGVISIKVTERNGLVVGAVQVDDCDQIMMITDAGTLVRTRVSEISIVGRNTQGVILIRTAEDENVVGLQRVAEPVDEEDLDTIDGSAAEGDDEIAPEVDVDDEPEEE
Chain of S. aureus GyrB ATPase (P0A0K8 whole entry): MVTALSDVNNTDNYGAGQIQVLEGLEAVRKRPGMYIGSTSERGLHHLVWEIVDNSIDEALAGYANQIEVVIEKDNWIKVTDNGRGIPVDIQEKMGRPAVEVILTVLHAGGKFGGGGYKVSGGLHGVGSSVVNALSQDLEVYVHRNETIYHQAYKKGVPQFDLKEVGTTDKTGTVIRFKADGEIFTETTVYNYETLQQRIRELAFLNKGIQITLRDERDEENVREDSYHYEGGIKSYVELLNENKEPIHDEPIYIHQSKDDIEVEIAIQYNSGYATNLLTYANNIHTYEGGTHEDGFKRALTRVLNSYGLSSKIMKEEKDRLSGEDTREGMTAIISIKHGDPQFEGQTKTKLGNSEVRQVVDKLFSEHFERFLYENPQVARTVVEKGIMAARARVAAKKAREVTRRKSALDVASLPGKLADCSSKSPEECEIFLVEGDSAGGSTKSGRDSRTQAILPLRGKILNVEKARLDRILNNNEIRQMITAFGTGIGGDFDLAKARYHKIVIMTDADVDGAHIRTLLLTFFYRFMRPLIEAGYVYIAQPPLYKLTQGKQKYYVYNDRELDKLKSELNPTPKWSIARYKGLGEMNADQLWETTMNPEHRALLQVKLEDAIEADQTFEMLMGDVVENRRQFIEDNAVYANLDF
Type: biochemical
Protocol: S. aureus GyrB ATPase Inhibition Activity: Compounds may be tested for inhibition of S. aureus GyrB ATPase activity using an ammonium molybdate/malachite green-based phosphate detection assay (Lanzetta, P. A., L. J. Alvarez, P. S. Reinach, and O. A. Candia, 1979, 100: 95-97). Assays can be performed in multiwell plates in 30 μl reactions containing: 50 mM Hepes buffer pH 7.5, 75 mM ammonium acetate, 8.0 mM magnesium chloride, 0.5 mM ethylenediaminetetraacetic acid, 5% glycerol, 1.0 mM 1,4-Dithio-DL-threitol, 200 nM bovine serum albumin, 1.0 μg/ml sheared salmon sperm DNA, 250 pM E. coli GyrA, 250 pM S. aureus GyrB, 250 μM ATP, and compound in dimethylsulfoxide. Reactions can be quenched with 30 μl of ammonium molybdate/malachite green detection reagent containing 1.2 mM malachite green hydrochloride, 8.5 mM ammonium molybdate tetrahydrate, and 1 M hydrochloric acid. Plates can be read in an absorbance plate reader at 650 nm and percent inhibition values can be calculated using dimethylsulfoxide (2%)-containing reactions as 0% inhibition and EDTA-containing ([…]) reactions as 100% inhibition controls. An IC50 measurement of compound potency for each compound can be determined from reactions performed in the presence of 10 different compound concentrations.
Molecule `CCNC(=O)Nc1cc(-c2nc(C(F)(F)F)cs2)c(-c2ccc3c(c2)c(=O)c(C(=O)O)cn3[C@H](COP(=O)(O)O)C(C)(C)C)cn1` [Example 3, (S)-1-(3,3-dimethyl-1-(phosphonooxy)butan-2-yl)-6-(6-(3-ethylureido)-4-(4-(trifluoromethyl)thiazol-2-yl)pyridin-3-yl)-4-oxo-1,4-dihydroquinoline-3-carboxylic acid] has an inhibition at 1 µM of 108%.
`CCNC(=O)Nc1cc(-c2nc(C(F)(F)F)cs2)c(-c2ccc3c(c2)c(=O)c(C(=O)OCCOP(=O)(O)O)cn3C2CC2)cn1` [Example 18, 2-(phosphonooxy)ethyl 1-cyclopropyl-6-(6-(3-ethylureido)-4-(4-(trifluoromethyl)thiazol-2-yl)pyridin-3-yl)-4-oxo-1,4-dihydroquinoline-3-carboxylate hydrochloride] was tested, and the inhibition at 1 µM was 104%.
`CCNC(=O)Nc1cc(-c2nc(C(F)(F)F)cs2)c(-c2ccc3c(c2)c(=O)c(C(=O)O)cn3[C@@H](CC)COP(=O)(O)O)cn1` [Example 5, (S)-6-(6-(3-ethylureido)-4-(4-(trifluoromethyl)thiazol-2-yl)pyridin-3-yl)-4-oxo-1-(1-(phosphonooxy)butan-2-yl)-1,4-dihydroquinoline-3-carboxylic acid] gave an inhibition at 1 µM of 120%.
`CCNC(=O)Nc1cc(-c2nc(C(F)(F)F)cs2)c(-c2ccc3c(c2)c(=O)c(C(=O)NCCCOP(=O)(O)O)cn3C2CC2)cn1` [Example 11, 3-(1-cyclopropyl-6-(6-(3-ethylureido)-4-(4-(trifluoromethyl)thiazol-2-yl)pyridin-3-yl)-4-oxo-1,4-dihydroquinoline-3-carboxamido)propyl dihydrogen phosphate hydrochloride] gave an inhibition at 1 µM of 108%.
`CCNC(=O)Nc1cc(-c2nc(C(F)(F)F)cs2)c(-c2ccc3c(=O)c(C(=O)NCCCOP(=O)(O)O)cn(Cc4noc(C)n4)c3c2)cn1` [Example 13, 3-{[(7-{6[(ethylcarbamoyl)amino]-4-[4-(trifluoromethyl)-1,3-thiazol-2-yl]pyridin-3-yl}-1-[(5-methyl-1,2,4-oxadiazol-3-yl)methyl]-4-oxo-1,4-dihydroquinolin-3-yl)carbonyl]amino}propyl dihydrogen phosphate] was tested, and the inhibition at 1 µM was 99%.
Work on `CCCn1cc(C(=O)NCCCOP(=O)(O)O)c(=O)c2ccc(-c3cnc(NC(=O)NCC)cc3-c3nc(C(F)(F)F)cs3)cc21` [Example 17, 3-{[(7-{6-[(ethylcarbamoyl)amino]-4-[4-(trifluoromethyl)-1,3-thiazol-2-yl]pyridin-3-yl}-4-oxo-1-propyl-1,4-dihydroquinolin-3-yl)carbonyl]amino}propyl dihydrogen phosphate] yielded an inhibition at 1 µM of 100%.
`CCNC(=O)Nc1cc(-c2nc(C(F)(F)F)cs2)c(-c2ccc3c(c2)c(=O)c(C(=O)O)cn3C[C@H]2CCN(CCN3CCN(C)CC3)C2)cn1` [Example 37, (S)-6-(6-(3-ethylureido)-4-(4-(trifluoromethyl)thiazol-2-yl)pyridin-3-yl)-1-((1-(2-(4-methylpiperazin-1-yl)ethyl)pyrrolidin-3-yl)methyl)-4-oxo-1,4-dihydroquinoline-3-carboxylic acid] showed an inhibition at 1 µM of 100%.
Work on `CCNC(=O)Nc1cc(-c2nc(C(F)(F)F)cs2)c(-c2ccc3c(c2)c(=O)c(C(=O)OCc2oc(=O)oc2C)cn3C(COC)COC)cn1` [Example 40, (5-methyl-2-oxo-1,3-dioxo1-4-yl)methyl 1-(1,3-dimethoxypropan-2-yl)-6-(6-(3-ethylureido)-4-(4-(trifluoromethyl)thiazol-2-yl)pyridin-3-yl)-4-oxo-1,4-dihydroquinoline-3-carboxylate] yielded an inhibition at 1 µM of 97%.
Work on `CCNC(=O)Nc1cc(-c2nc(C(F)(F)F)cs2)c(-c2ccc3c(c2)c(=O)c(C(=O)OCCOC(=O)C(C)C)cn3C(COC)COC)cn1` [Example 43, 2-(isobutyryloxy)ethyl 1-(1,3-dimethoxypropan-2-yl)-6-(6-(3-ethylureido)-4-(4-(trifluoromethyl)thiazol-2-yl)pyridin-3-yl)-4-oxo-1,4-dihydroquinoline-3-carboxylate] yielded an inhibition at 1 µM of 103%.
`CCNC(=O)Nc1cc(-c2nc(C(F)(F)F)cs2)c(-c2ccc3c(=O)c(C(=O)NCCCOP(=O)(O)O)cn(CC)c3c2)cn1` [Example 14, 3-{[(1-ethyl-7-{6-[(ethylcarbamoyl)amino]-4-[4-(trifluoromethyl)-1,3-thiazol-2-yl]pyridin-3-yl}-4-oxo-1,4-dihydroquinolin-3-yl)carbonyl]amino}propyl dihydrogen phosphate] showed an inhibition at 1 µM of 97%.
`CCNC(=O)Nc1cc(-c2nc(C(F)(F)F)cs2)c(-c2ccc3c(c2)c(=O)c(C(=O)OCCOC(=O)CC)cn3C(COC)COC)cn1` [Example 42, 2-(propionyloxy)ethyl 1-(1,3-dimethoxypropan-2-yl)-6-(6-(3-ethylureido)-4-(4-(trifluoromethyl)thiazol-2-yl)pyridin-3-yl)-4-oxo-1,4-dihydroquinoline-3-carboxylate] showed an inhibition at 1 µM of 104%.
`CCNC(=O)Nc1cc(-c2nc(C(F)(F)F)cs2)c(-c2ccc3c(c2)c(=O)c(C(=O)O)cn3[C@H](COP(=O)(O)O)CC(C)C)cn1` [Example 7, (5)-6-(6-(3-ethylureido)-4-(4-(trifluoromethyl)thiazol-2-yl)pyridin-3-yl)-1-(4-methyl-1-(phosphonooxy)pentan-2-yl)-4-oxo-1,4-dihydroquinoline-3-carboxylic acid] gave an inhibition at 1 µM of 111%.
With `CCNC(=O)Nc1cc(-c2nc(C(F)(F)F)cs2)c(-c2ccc3c(c2)c(=O)c(C(=O)O)cn3CC(C)N2CCOCC2)cn1` (stereo not shown) [Example 56, 6-(6-(3-Ethylureido)-4-(4-(trifluoromethyl)thiazol-2-yl)pyridin-3-yl)-1-(2-morpholinopropyl)-4-oxo-1,4-dihydroquinoline-3-carboxylic acid] the inhibition at 1 µM was 101%.
Work on `CCNC(=O)Nc1cc(-c2nc(C(F)(F)F)cs2)c(-c2ccc3c(c2)c(=O)c(C(=O)O)cn3[C@H]2[C@@H]3CN(C)C[C@@H]32)cn1` [Example 35, 6-{6-[(ethylcarbamoyl)amino]-4-[4-(trifluoromethyl)-1,3-thiazol-2-yl]pyridin-3-yl}-1-[(1R,5S,6s)-3-methyl-3-azabicyclo[3.1.0]hex-6-yl]-4-oxo-1,4-dihydroquinoline-3-carboxylic acid] yielded an inhibition at 1 µM of 108%.
For `CCNC(=O)Nc1cc(-c2nc(C(F)(F)F)cs2)c(-c2ccc3c(=O)c(C(=O)NCCCOP(=O)(O)O)cn(CC4CC4)c3c2)cn1` [Example 15, phosphate hydrochloride], the inhibition at 1 µM was 76%.
`CCNC(=O)Nc1cc(-c2nc(C(F)(F)F)cs2)c(-c2ccc3c(c2)c(=O)c(C(=O)N(C)C)cn3C[C@@H]2CCCNC2)cn1` [Example 32, 6-{6-[(Ethylcarbamoyl)amino]-4-[4-(trifluoromethyl)-1,3-thiazol-2-yl]pyridin-3-yl}-N,N-dimethyl-4-oxo-1-[(3R)-piperidin-3-ylmethyl]-1,4-dihydroquinoline-3-carboxamide] showed an inhibition at 1 µM of 104%.
`CCNC(=O)Nc1cc(-c2nc(C(F)(F)F)cs2)c(-c2cc3c(=O)c(C(=O)O)cn(CCN(C)C)c3cc2OCCN(C)C)cn1` [Example 26, 7-(2-(dimethylamino)ethoxy)-1-(2-(dimethylamino)ethyl)-6-(6-(3-ethylureido)-4-(4-(trifluoromethyl)thiazol-2-yl)pyridin-3-yl)-4-oxo-1,4-dihydroquinoline-3-carboxylic acid] gave an inhibition at 1 µM of 108%.
`CCNC(=O)Nc1cc(-c2nc(C(F)(F)F)cs2)c(-c2cc3c(=O)c(C(=O)O)cn(CC)c3cc2OCCN(C)C)cn1` [Example 47, 7-(2-(dimethylamino)ethoxy)-1-ethyl-6-(6-(3-ethylureido)-4-(4-(trifluoromethyl)thiazol-2-yl)pyridin-3-yl)-4-oxo-1,4-dihydroquinoline-3-carboxylic acid] showed an inhibition at 1 µM of 110%.
`CCNC(=O)Nc1cc(-c2nc(C(F)(F)F)cs2)c(-c2cc3c(=O)c(C(=O)O)cn(CC)c3cc2N2CCN(C)CC2)cn1` [Example 22, 1-ethyl-6-(6-(3-ethylureido)-4-(4-(trifluoromethyl)thiazol-2-yl)pyridin-3-yl)-7-(4-methylpiperazin-1-yl)-4-oxo-1,4-dihydroquinoline-3-carboxylic acid] gave an inhibition at 1 µM of 103%.
`CCNC(=O)Nc1cc(-c2nc(C(F)(F)F)cs2)c(-c2cc3c(=O)c(C(=O)O)cn(CCN4CCOCC4)c3cc2F)cn1` [Example 50, 6-(6-(3-ethylureido)-4-(4-(trifluoromethyl)thiazol-2-yl)pyridin-3-yl)-7-fluoro-1-(2-morpholinoethyl)-4-oxo-1,4-dihydroquinoline-3-carboxylic acid] gave an inhibition at 1 µM of 106%.
Molecule `CCNC(=O)Nc1cc(-c2nc(-c3ccccc3)cs2)c(-c2cc3c(=O)c(C(=O)O)cn(CCN(C)C)c3cc2OCCN(C)C)cn1` [Example 24, 7-(2-(dimethylamino)ethoxy)-1-(2-(dimethylamino)ethyl)-6-(6-(3-ethylureido)-4-(4-phenylthiazol-2-yl)pyridin-3-yl)-4-oxo-1,4-dihydroquinoline-3-carboxylic acid] has an inhibition at 1 µM of 107%.
In the case of `CCNC(=O)Nc1cc(-c2nc(C(F)(F)F)cs2)c(-c2ccc3c(c2)c(=O)c(C(=O)O)cn3CCN)cn1` [Example 34, 1-(2-Aminoethyl)-6-{6-[(ethylcarbamoyl)amino]-4-[4-(trifluoromethyl)-1,3-thiazol-2-yl]pyridin-3-yl}-4-oxo-1,4-dihydroquinoline-3-carboxylic acid], the inhibition at 1 µM is reported as 112%.
